In patent US7935706B2, “Nitrogen-containing heterocycle derivatives substituted with cyclic group” (Shionogi & Co., Ltd., priority 2006, dated 2011):
pIC50: −log10 of the molar value. Like-named read-outs stand apart in the source and are kept apart here.

How the values were obtained:
[1] = target: T1, NMDA receptor (NR1 subunit and NR2B subunit) (Mus musculus, UniProt P35438+Q01097); experiment: Measurement of expression of NMDA receptor and Ca ion influx amount (glutamic acid/glycine-induced, HEK293 cell co-expressing NR1 and NR2B subunits, Fluo-3/AM); assay type: cell-based
T1 construct: expressed in transfected cells; host or cells: HEK293 cells, transient transfection with pcDNA3.1 plasmids
T1 sequence (Q01097 27-1482, other chains not shown): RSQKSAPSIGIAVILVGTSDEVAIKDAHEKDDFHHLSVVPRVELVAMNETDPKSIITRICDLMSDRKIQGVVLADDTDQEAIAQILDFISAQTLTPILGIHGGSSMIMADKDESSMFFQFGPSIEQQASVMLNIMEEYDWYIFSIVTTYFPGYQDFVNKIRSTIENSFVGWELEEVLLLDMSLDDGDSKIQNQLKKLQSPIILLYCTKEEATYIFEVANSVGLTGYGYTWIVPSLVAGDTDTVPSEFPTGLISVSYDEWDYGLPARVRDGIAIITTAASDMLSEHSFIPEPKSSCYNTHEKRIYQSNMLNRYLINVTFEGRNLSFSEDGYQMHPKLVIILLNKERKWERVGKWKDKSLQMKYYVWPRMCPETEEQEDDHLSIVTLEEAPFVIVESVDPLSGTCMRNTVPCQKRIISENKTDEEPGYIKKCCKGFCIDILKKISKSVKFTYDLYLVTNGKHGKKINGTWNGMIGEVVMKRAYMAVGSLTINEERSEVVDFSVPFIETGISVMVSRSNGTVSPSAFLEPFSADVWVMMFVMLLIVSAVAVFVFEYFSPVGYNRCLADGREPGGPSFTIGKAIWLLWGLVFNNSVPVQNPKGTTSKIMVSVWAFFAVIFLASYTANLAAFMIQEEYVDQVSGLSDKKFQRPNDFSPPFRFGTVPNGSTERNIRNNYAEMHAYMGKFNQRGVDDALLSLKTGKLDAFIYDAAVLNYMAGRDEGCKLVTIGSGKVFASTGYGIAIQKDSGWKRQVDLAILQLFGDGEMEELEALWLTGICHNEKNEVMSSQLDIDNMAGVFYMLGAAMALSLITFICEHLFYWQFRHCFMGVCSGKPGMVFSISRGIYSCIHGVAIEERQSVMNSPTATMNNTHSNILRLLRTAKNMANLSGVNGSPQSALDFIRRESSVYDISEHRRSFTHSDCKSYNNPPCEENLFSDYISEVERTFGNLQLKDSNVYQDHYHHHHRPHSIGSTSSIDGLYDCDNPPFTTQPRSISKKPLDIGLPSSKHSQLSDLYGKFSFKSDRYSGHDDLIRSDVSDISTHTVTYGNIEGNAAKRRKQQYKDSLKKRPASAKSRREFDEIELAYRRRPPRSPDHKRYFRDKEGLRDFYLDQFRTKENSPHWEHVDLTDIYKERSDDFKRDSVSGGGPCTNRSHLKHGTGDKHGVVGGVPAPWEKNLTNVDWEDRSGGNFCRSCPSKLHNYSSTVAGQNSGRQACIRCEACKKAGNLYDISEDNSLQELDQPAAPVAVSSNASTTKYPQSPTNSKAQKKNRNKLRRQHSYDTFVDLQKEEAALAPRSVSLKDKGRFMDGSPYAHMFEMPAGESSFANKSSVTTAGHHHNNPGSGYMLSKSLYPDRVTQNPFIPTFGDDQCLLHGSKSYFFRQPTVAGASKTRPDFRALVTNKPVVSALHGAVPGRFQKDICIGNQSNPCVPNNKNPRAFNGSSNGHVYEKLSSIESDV
Procedure: Measurement of Expression of NMDA Receptor and Ca Ion Influx Amount
A complementary DNA (cDNA) of a mouse NMDA receptor subunit was transiently introduced into a HEK293 cell and, after 1 day from introduction, change in a glutamic acid/glycine-induced intracelluar Ca amount was measured using a Ca ion reactive fluorescent coloring matter.
The HEK293 cell was cultured, and passaged using a modified Dulbecco's Eagle medium (DMEM, low glucose).
The HEK293 cell (20,000/well) was seeded on a 96-well plate, a NR1 subunit and a NR2B subunit of the NMDA receptor incorporated into the pcDNA3.1 plasmid were transiently introduced into a cell, and the subunits were co-expressed. An introduction amount of a DNA was 0.025 μg in the case of the NR1 subunit, and 0.075 μg in the case of NR2B subunit per well. For the cell after introduction, cell death was inhibited using 50 μM of the NMDA receptor antagonist MK-801.
For adjusting a test compound and washing a cell, Krebs/Ringer/Hepes buffer (KRH, Ca: 5 mM) was used.
After 1 day from introduction, the NMDA receptor antagonist MK-801 was washed out using the KRH buffer, and a Ca ion indication fluorescent coloring matter Fluo-3/AM was made to be taken into the cell. Ca ion influx was induced with 20 μM glutamic acid/2 μM glycine. Change in a fluorescent amount due to Ca ion influx into the cell was measured at excitation of 480 nm using a fluorescent imaging system FDSS 3000.
From a measured value of the test compound, a Ca ion influx inhibition rate (%) was obtained by the following equation, and a dose at which influx is inhibited 50% (IC50) was calculated.
Ca ion influx inhibition rate(%)=100−[(fluorescent amount in the presence of test compound−background fluorescent amount)/(total fluorescent amount−background fluorescent)]×100

NR1/NR2B receptor = target: T2, NR1/NR2B receptor (Rattus norvegicus, UniProt P35439+Q00960); experiment: Test of binding with NMDA receptor (NR1/NR2B receptor): competition with [3H]-Ifenprodil on rat cerebral cortex membrane specimen; conditions: for IC50: [3H]-Ifenprodil 5 nM, GBR-12909 3 μM, rat cerebral cortex membranes, ice temperature 120 minutes, read-out: NR2B (IC50 μM); for pIC50: same binding test, read-out: IC50 (binding with NR1/NR2B receptor)
T2 construct: from tissue; host or cells: rat cerebral cortex membranes (male Slc: Wistar rat)
T2 sequence (Q00960 27-1482, other chains not shown): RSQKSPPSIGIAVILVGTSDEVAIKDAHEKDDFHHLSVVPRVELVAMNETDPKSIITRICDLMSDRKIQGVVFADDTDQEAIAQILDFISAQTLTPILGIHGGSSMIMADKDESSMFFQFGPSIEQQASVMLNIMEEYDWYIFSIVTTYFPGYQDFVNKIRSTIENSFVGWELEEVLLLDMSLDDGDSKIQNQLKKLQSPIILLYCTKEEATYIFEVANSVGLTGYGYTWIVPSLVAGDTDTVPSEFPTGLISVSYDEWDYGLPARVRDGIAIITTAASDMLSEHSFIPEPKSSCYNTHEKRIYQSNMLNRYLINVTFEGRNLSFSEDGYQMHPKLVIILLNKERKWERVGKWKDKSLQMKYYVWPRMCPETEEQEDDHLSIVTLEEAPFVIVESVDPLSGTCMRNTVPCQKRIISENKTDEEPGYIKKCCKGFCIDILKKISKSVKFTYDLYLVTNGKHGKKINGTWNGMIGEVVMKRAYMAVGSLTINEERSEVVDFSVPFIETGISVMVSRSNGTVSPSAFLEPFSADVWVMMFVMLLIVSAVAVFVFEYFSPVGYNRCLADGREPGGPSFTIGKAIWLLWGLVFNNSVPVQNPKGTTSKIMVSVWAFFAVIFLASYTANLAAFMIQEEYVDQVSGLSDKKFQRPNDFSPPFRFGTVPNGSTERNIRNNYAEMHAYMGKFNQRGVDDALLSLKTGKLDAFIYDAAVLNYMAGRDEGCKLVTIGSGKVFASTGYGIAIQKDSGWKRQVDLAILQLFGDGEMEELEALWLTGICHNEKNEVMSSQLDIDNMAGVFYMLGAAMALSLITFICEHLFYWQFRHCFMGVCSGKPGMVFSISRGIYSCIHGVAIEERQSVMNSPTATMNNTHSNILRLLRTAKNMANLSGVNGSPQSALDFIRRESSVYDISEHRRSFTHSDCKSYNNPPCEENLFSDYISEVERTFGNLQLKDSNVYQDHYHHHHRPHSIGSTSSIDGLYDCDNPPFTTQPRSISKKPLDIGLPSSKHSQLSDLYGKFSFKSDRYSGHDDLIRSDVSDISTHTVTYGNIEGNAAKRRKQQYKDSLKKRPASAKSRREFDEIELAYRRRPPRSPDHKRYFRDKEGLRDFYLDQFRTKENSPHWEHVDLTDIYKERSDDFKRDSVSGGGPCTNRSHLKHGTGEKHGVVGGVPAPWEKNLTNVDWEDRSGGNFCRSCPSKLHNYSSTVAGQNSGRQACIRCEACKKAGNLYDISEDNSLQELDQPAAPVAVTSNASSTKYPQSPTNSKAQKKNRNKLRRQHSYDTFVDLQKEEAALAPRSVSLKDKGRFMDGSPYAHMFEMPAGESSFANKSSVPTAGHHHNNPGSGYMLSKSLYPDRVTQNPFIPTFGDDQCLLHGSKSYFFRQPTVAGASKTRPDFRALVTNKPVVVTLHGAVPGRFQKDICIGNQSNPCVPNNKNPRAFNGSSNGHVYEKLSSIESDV
Procedure: Test of Binding with NMDR Receptor (NR1/NR2B Receptor)
Using Ifenprodil which is an antagonist specific for a NR1/NR2B subtype receptor as a ligand, an experiment of competition between a receptor and a test compound was performed.
Using a male Slc: Wistar rat as an animal, a brain was isolated after decapitation, and a cerebral cortex was fractionated. The cerebral cortex was homogenized with a 20-fold amount of an ice-cooled 50 mM Tris/HCl buffer (pH 7.4), and the homogenate was centrifuged at 4° C. and 27,500×g for 10 minutes. The resulting precipitate was suspended in the same buffer, and this was again centrifuged. This operation was repeated for three times, the resulting precipitate was suspended in a buffer, and this was stored at −80° C. Immediately before an experiment, the frozen suspension was thawed at room temperature, this was centrifuged at 4° C. and 27,500×g for 10 minutes, and the resulting precipitate was suspended in a buffer. Further, the suspension was diluted 10-fold with a buffer, and this was used as a membrane specimen in an experiment. In a binding experiment, to 470 μl of the membrane specimen were added […] of each of test compounds having different concentrations, 10 μl of a labeled ligand [^3H]-Ifenprodil and 10 μl GBR-12909, followed by incubation at an ice temperature for 120 minutes. A concentration of [^3H]-Ifenprodil of the labeled ligand was finally 5 nM, and a concentration of GBR-12909 was finally 3 μM. For measuring a total binding amount, DMSO as a solvent was used and, for measuring a non-specific binding amount, 100 μM Ifenprodil was used. GBR-12909 was added in order to block binding of [^3H]-Ifenprodil to non-polyamine-sensitive site. After incubation, a bound formand a free foramwere separated using Whatman GF/C filter (manufactured by Whatman), and the filter was washed with 2.5 ml ice-cooled buffer four times. The filter was immersed in liquid scintillation (Cryasol I, manufactured by Nacalai tesque), and radioactivity (dpm) was measured with a liquid scintillation counter. From a measured value, a binding inhibition rate (%) was obtained by the following equation, and a dose at which binding is inhibited 50% (IC50) was calculated. A formula of GBR-12909 (vanoxerine) is shown below.
Binding inhibition rate(%)=100−[(binding amount in the presence of test compound−non-specific binding amount)/(total binding amount−non-specific binding amount)]×100

[2] = Ca ion influx induced with 20 μM glutamic acid/2 μM glycine, HEK293 cell with mouse NR1/NR2B, read-out: Ca2+ IC50
[3] = same Ca ion influx test, read-out: IC50 (Ca ion influx inhibition)

Compound	melting point	pIC50 [1, 2]	IC50 (NR1/NR2B receptor)	pIC50 [1, 3]	pIC50 (NR1/NR2B receptor)
O=C(NCC1CCN(c2ccc(C(F)(F)F)cc2)CC1)c1ccc(=O)[nH]c1 [Compound I-3]	283 to 284 °C (dec.)				
O=C(CC1CCN(c2ccc(C(F)(F)F)cn2)CC1)Nc1ccc2[nH]c(=O)oc2c1 [Compound I-62]	229 to 230 °C	7.04			
O=C(CCC1CCN(c2ccc(C(F)(F)F)cc2)CC1)Nc1ccc(=O)[nH]c1 [Compound I-21]		7.43	0.096 µM		
COc1ccc(N2CCN(C(=O)C(=O)Nc3ccc4[nH]c(=O)oc4c3)C[C@H]2C)cc1Cl [Compound I-248]	118 to 120 °C				
O=C(Nc1ccc2[nH]c(=O)oc2c1)C(=O)N1CCN(c2ccc(C(F)(F)F)cn2)CC1 [Compound I-103]			0.018 µM	≥ 7.00	
O=C(CC1(O)CCN(c2ccc(C(F)(F)F)c(F)c2)CC1)Nc1ccc2[nH]c(=O)oc2c1 [Compound I-116]		7.31	0.049 µM		
O=C(Nc1ccc2[nH]c(=O)sc2c1)C(=O)N1CCN(c2ccc(Cl)cc2)CC1 [Compound I-90]			0.026 µM	≥ 7.00	
O=C(Nc1ccc2[nH]c(=O)oc2c1)C(=O)N1CCN(c2cccc(Cl)c2)CC1 [Compound I-86]				≥ 7.00	≥ 7.00
O=C(CC1(O)CCN(c2ccc(C(F)(F)F)cc2)CC1)Nc1ccc2[nH]c(=O)sc2c1 [Compound I-70]		7.82	0.068 µM		
O=C(Nc1ccc2[nH]c(=O)[nH]c2c1)C(=O)N1CCN(c2ccc(Cl)cc2)CC1 [Compound I-84]		7.96			≥ 7.00
O=C(Nc1cnc2[nH]c(=O)oc2c1)C(=O)N1CCN(c2ccc(Cl)c(Cl)c2)CC1 [Compound I-105]		8.00	0.045 µM		
O=C(NCCC1CCN(c2ccc(C(F)(F)F)cn2)CC1)c1ccc(=O)[nH]c1 [Compound I-6]	232 to 234 °C	7.41			
COc1cc(N2CCN(C(=O)C(=O)Nc3ccc4[nH]c(=O)oc4c3)CC2)ccc1Cl [Compound I-250]	201 to 203 °C				
O=C(Nc1ccc2[nH]c(=O)oc2c1)C(=O)N1CCN(c2ccc(C(F)(F)F)c(F)c2)CC1 [Compound I-98]			0.015 µM	≥ 7.00	
O=C(C=C1CCN(c2ccc(OC(F)F)cc2)CC1)Nc1ccc2[nH]c(=O)oc2c1 [Compound I-237]				≥ 7.00	≥ 7.00
COc1cc(N2CCN(C(=O)C(=O)Nc3ccc4[nH]c(=O)oc4c3)C[C@H]2C)ccc1Cl [Compound I-251]	122 to 124 °C				
O=C(Nc1cnc2[nH]c(=O)oc2c1)C(=O)N1CCN(c2ccc(Cl)c(F)c2)CC1 [Compound I-113]		7.47	0.034 µM		
O=C(Nc1ccc2[nH]c(=O)oc2c1)C(=O)N1CCN(c2ccc(Br)cc2)CC1 [Compound I-87]			0.012 µM	≥ 7.00	
O=C(Nc1ccc2[nH]c(=O)oc2c1)C(=O)N1CCN(c2ccc(F)c(F)c2)CC1 [Compound I-99]				≥ 7.00	≥ 7.00
C[C@@H]1CN(c2ccc(F)c(Cl)c2)CCN1C(=O)C(=O)Nc1ccc2[nH]c(=O)oc2c1 [Compound I-221]				≥ 7.00	≥ 7.00
COc1ccc(N2CCC(=CC(=O)Nc3ccc4[nH]c(=O)oc4c3)CC2)cc1F [Compound I-238]				≥ 7.00	≥ 7.00
O=C(Nc1cnc2[nH]c(=O)[nH]c2c1)C(=O)N1CCN(c2ccc(C(F)(F)F)cc2)CC1 [Compound I-101]		9.00	0.011 µM		
O=C(C=C1CCN(c2ccc(Cl)c(Cl)c2)CC1)Nc1ccc2[nH]c(=O)oc2c1 [Compound I-184]		7.96	0.041 µM		

Further lines, results first:

melting point	pIC50 [1, 2]	IC50 (NR1/NR2B receptor)	pIC50 [1, 3]	pIC50 (NR1/NR2B receptor)	Compound
260 to 261 °C					O=C(CC1(O)CCN(c2ccc(C(F)(F)F)cc2)CC1)Nc1ccc2c(c1)CC(=O)N2 [Compound I-65]
236 to 237 °C	7.10				O=C(CC1=CCN(c2ccc(C(F)(F)F)cn2)CC1)Nc1ccc2[nH]c(=O)oc2c1 [Compound I-63]
	8.40	0.044 µM			O=C(Nc1ccc2[nH]c(=O)oc2c1)C(=O)N1CCCN(c2ccc(Cl)c(F)c2)CC1 [Compound I-154]
218 to 219 °C	7.43				O=C(CC1(O)CCN(c2ccc(C(F)(F)F)cn2)CC1)Nc1ccc2[nH]c(=O)oc2c1 [Compound I-61]
222 to 223 °C					O=C(CC1(O)CCN(c2ccc(C(F)(F)F)cc2)CC1)Nc1ccc2c(c1)CCC(=O)N2 [Compound I-64]
			≥ 7.00	≥ 7.00	O=C(Nc1ccc2[nH]c(=O)oc2c1)C(=O)N1CCCN(c2ccc(C(F)(F)F)c(F)c2)CC1 [Compound I-114]
		0.029 µM	≥ 7.00		C[C@@H]1CN(c2ccc(Cl)cc2)CCN1C(=O)C(=O)Nc1ccc2[nH]c(=O)oc2c1 [Compound I-178]
	7.85	0.054 µM			O=C(CC1(O)CCN(c2ccc(Cl)c(Cl)c2)CC1)Nc1ccc2[nH]c(=O)oc2c1 [Compound I-187]
	8.40	0.077 µM			O=C(CC1(O)CCN(c2ccc(C(F)(F)F)cc2)CC1)Nc1ccc2[nH]c(=O)oc2c1 [Compound I-30]
	7.89	0.107 µM			O=C(Nc1ccc2[nH]c(=O)oc2c1)C(F)=C1CCN(c2ccc(C(F)(F)F)cc2)CC1 [Compound I-42]
		0.059 µM	≥ 7.00		C[C@@H]1CN(C(=O)C(=O)Nc2ccc3[nH]c(=O)oc3c2)CCN1c1ccc(Cl)cc1 [Compound I-177]
226 to 228 °C					CCOc1ccc(N2CCN(C(=O)C(=O)Nc3ccc4[nH]c(=O)oc4c3)CC2)cc1F [Compound I-253]
199 to 200 °C					O=C(NCCC1(O)CCN(c2ccc(C(F)(F)F)cn2)CC1)c1cn[nH]c1 [Compound I-67]
274 to 275 °C (dec.)					O=C(NC1CCN(c2ccc(Cl)cc2)CC1)c1ccc(=O)[nH]c1 [Compound I-4]
	8.70	0.013 µM			O=C(Nc1ccc2[nH]c(=O)[nH]c2c1)C(=O)N1CCN(c2ccc(C(F)(F)F)cc2)CC1 [Compound I-79]
264 to 266 °C (dec.)					CC(=O)c1ccc(N2CCN(C(=O)C(=O)Nc3ccc4[nH]c(=O)oc4c3)CC2)cc1 [Compound I-203]
	7.64			≥ 7.00	O=C(C=C1CCN(c2ccc(Cl)cn2)CC1)Nc1ccc2[nH]c(=O)oc2c1 [Compound I-45]
	7.82	0.023 µM			O=C(NCCC1CCN(c2ccc(Cl)c(Cl)c2)CC1)c1ccc(=O)[nH]c1 [Compound I-196]
			≥ 7.00	≥ 7.00	O=C(C=C1CCN(c2ccc(OC(F)(F)F)cc2)CC1)Nc1ccc2[nH]c(=O)oc2c1 [Compound I-225]
			≥ 7.00	≥ 7.00	O=C(Nc1cnc2[nH]c(=O)oc2c1)C(=O)N1CCN(c2ccc(C(F)(F)F)c(F)c2)CC1 [Compound I-107]
	9.00	0.012 µM			O=C(Nc1ccc2[nH]c(=O)oc2c1)C(=O)N1CCN(c2ccc(Cl)c(F)c2)CC1 [Compound I-109]
